Data taken from patent publication US7932249B2, “Olanzapine pamoate dihydrate” (Eli Lilly and Company, priority 2005, dated 2011).

Experiments:
Type in all cases: physicochemical
[1] = Comparative in vitro dissolution test, 50 rpm paddle speed; conditions: for Average % Olanzapine Release (n = 3): USP Apparatus 2, 50 rpm, 0.05% CTAB pH 6.8 USP buffer, 37° C., 1000 mL
Description: In-vitro dissolution testing was performed to compare the olanzapine release rates for olanzapine pamoate monohydrate and the olanzapine pamoate dihydrate.

[2] = In vitro dissolution test at higher paddle speed (100 rpm); conditions: 100 rpm paddle speed, 0.05% CTAB pH 6.8 USP buffer, 37° C.
Description: Another dissolution experiment was performed in order to ensure that the media conditions used to generate the profiles in Table 4 were not solubility limiting. This experiment was performed using the same samples and media conditions but at a higher paddle speed to provide the data listed in Table 5.

[3] = Solubility in aqueous solution (comparative statement)

Compound | Average % Olanzapine Release (n = 3) ([1]; 0.25 hr) [%] | Average % Olanzapine Release (n = 3) ([1]; 0.5 hr) [%] | Average % Olanzapine Release (n = 3) ([1]; 0.75 hr) [%] | Average % Olanzapine Release (n = 3) ([1]; 1 hr) [%] | Average % Olanzapine Release (n = 3) ([1]; 2 hrs) [%] | Average % Olanzapine Release (n = 3) ([1]; 4 hrs) [%] | Average % Olanzapine Release (n = 3) ([1]; 6 hrs) [%] | Average % Olanzapine Release (n = 3) ([1]; 24 hrs) [%] | Release rate of olanzapine compared with olanzapine pamoate monohydrate ([1]; aqueous conditions of Table 3, 50 rpm) | % Olanzapine Release (n = 1) ([2]; 24 hrs) [%] | % Olanzapine Release (n = 1) ([2]; 36 hrs) [%] | Solubility in aqueous solution compared with olanzapine pamoate monohydrate [3]
Cc1cc2c(s1)Nc1ccccc1N=C2N1CCN(C)CC1.O.O.O=C(O)c1cc2ccccc2c(Cc2c(O)c(C(=O)O)cc3ccccc23)c1O [Olanzapine Pamoate Dihydrate, 2-methyl-4-(4-methyl-1-piperazinyl)-10H-thieno[2,3-b][1,5]benzodiazepine pamoate dihydrate] | 19 | 26 | 30 | 33 | 40 | 45 | 47 | 59 | substantially lower release rate of olanzapine than the olanzapine pamoate monohydrate | 95 | 97 | substantially less soluble in aqueous solution than olanzapine pamoate monohydrate
Cc1cc2c(s1)Nc1ccccc1N=C2N1CCN(C)CC1.O=C(O)c1cc2ccccc2c(Cc2c(O)c(C(=O)O)cc3ccccc23)c1O [Olanzapine Pamoate Monohydrate, 2-methyl-4-(4-methyl-1-piperazinyl)-10H-thieno[2,3-b][1,5]benzodiazepine pamoate, reference compound] | 27 | 39 | 46 | 52 | 62 | 73 | 77 | 83 |  | 99 | 99 | 
